Measured values reported in ChEMBL document CHEMBL5260811, “Drug development against tuberculosis: Impact of alkaloids” (Eur J Med Chem, 2017).

Legend:
[1] = system: Mycobacterium tuberculosis variant bovis; assay: Antimycobacterial activity against Mycobacterium bovis; format: functional
[2] = system: Mycobacterium tuberculosis variant bovis; assay: Antimycobacterial activity against Mycobacterium bovis BCG; format: functional

OC1CCCC/C=C\CCCC[C@@H]2CN3CCCC/C=C\CCCC[C@H]4C[C@H](CN(C1)C4)[C@H]2CC3 (some centres undefined)
IC [1]: 12.5 µg/mL

C1=C\CCCCN2C[C@H]3CCCC/C=C\CCCCN4CC[C@@H]([C@H](CCCCCC/1)C4)[C@H](C3)C2
IC [1]: 2.5 µg/mL

C1=C\CCCC[C@@H]2CN3CCCC/C=C\CCCC[C@H]4C[C@H](CN(CCCCCC/1)C4)[C@H]2CC3
IC [1]: 1 µg/mL

C(=N\Nc1nncs1)/c1c[nH]c2ccccc12
IC [2]: 7.81 µg/mL
